Experimental data reported in US9340590B2 (priority 2011, dated 2016).
Positions of bridges follow the written chain, without caps; N, C: chain ends. Residues, ends and D or L forms follow the SMILES beside them.

Columns and labels:
Experiment in all cases: cell-based
hNav1.7 = hNav1.7 (Homo sapiens, UniProt Q15858); format: cell-based; details: IonWorks Quattro, use-dependent block, hNav1.7; read-out: IWQ Use Nav1.7
hNav1.5 = hNav1.5 (Homo sapiens, UniProt Q14524); details: IonWorks Quattro, use-dependent block, hNav1.5; read-out: IWQ Use Nav1.5
hNav1.3 = hNav1.3 (Homo sapiens, UniProt Q9NY46); details: IonWorks Quattro, use-dependent block, hNav1.3; read-out: IWQ Use Nav1.3

Sequence of hNav1.7 (Q15858 whole entry, looked up): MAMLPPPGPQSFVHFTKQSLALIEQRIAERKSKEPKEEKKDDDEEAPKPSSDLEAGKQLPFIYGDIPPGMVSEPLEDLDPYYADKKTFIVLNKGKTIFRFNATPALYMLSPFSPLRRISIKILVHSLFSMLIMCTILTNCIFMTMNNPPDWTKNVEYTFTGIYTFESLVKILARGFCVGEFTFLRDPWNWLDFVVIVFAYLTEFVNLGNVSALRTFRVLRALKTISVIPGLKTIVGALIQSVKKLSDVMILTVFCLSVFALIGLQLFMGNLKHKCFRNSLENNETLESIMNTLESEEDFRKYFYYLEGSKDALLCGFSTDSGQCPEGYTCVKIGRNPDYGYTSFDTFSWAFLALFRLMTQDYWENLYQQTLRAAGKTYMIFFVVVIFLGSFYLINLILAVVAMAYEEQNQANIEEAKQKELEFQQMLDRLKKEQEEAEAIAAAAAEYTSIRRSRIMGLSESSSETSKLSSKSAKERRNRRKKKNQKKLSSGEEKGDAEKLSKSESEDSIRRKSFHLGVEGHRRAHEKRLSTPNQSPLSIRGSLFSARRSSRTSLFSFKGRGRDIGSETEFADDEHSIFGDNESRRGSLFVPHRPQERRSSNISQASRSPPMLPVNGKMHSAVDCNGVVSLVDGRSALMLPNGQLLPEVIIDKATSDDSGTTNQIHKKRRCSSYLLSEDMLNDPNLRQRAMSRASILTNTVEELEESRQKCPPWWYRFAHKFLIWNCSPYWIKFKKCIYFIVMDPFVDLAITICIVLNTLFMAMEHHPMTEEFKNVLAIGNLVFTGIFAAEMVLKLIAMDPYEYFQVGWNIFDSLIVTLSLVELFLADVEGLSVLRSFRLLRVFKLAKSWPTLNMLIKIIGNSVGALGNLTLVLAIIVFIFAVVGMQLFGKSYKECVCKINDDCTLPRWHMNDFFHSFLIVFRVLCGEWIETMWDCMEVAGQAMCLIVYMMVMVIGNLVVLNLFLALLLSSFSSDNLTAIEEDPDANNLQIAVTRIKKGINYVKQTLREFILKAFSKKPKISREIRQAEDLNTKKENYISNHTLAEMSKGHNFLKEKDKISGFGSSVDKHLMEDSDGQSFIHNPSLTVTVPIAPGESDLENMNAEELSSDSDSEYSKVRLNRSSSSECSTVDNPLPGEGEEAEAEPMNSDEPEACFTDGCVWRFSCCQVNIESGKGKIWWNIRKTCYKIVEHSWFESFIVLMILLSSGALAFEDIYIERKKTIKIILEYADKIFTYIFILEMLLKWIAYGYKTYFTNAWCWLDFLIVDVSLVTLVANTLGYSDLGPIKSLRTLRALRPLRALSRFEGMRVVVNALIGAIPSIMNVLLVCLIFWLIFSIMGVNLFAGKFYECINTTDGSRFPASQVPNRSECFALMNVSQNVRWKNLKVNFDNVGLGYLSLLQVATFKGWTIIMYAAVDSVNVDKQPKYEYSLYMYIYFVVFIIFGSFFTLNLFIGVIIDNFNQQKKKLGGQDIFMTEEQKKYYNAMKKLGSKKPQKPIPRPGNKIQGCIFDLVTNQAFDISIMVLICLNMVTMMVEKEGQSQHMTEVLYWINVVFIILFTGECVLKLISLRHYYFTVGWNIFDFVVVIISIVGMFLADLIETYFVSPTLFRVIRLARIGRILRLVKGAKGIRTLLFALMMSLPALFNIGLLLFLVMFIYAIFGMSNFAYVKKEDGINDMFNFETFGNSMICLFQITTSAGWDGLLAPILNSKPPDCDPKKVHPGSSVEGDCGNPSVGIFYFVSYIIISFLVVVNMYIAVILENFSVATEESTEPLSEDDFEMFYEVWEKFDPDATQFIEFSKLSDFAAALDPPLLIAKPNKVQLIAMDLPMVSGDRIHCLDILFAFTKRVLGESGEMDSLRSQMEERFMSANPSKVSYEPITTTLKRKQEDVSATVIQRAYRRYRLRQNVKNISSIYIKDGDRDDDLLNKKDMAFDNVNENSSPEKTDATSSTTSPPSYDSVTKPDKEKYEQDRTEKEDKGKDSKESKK
Sequence of hNav1.5 (Q14524 whole entry, looked up): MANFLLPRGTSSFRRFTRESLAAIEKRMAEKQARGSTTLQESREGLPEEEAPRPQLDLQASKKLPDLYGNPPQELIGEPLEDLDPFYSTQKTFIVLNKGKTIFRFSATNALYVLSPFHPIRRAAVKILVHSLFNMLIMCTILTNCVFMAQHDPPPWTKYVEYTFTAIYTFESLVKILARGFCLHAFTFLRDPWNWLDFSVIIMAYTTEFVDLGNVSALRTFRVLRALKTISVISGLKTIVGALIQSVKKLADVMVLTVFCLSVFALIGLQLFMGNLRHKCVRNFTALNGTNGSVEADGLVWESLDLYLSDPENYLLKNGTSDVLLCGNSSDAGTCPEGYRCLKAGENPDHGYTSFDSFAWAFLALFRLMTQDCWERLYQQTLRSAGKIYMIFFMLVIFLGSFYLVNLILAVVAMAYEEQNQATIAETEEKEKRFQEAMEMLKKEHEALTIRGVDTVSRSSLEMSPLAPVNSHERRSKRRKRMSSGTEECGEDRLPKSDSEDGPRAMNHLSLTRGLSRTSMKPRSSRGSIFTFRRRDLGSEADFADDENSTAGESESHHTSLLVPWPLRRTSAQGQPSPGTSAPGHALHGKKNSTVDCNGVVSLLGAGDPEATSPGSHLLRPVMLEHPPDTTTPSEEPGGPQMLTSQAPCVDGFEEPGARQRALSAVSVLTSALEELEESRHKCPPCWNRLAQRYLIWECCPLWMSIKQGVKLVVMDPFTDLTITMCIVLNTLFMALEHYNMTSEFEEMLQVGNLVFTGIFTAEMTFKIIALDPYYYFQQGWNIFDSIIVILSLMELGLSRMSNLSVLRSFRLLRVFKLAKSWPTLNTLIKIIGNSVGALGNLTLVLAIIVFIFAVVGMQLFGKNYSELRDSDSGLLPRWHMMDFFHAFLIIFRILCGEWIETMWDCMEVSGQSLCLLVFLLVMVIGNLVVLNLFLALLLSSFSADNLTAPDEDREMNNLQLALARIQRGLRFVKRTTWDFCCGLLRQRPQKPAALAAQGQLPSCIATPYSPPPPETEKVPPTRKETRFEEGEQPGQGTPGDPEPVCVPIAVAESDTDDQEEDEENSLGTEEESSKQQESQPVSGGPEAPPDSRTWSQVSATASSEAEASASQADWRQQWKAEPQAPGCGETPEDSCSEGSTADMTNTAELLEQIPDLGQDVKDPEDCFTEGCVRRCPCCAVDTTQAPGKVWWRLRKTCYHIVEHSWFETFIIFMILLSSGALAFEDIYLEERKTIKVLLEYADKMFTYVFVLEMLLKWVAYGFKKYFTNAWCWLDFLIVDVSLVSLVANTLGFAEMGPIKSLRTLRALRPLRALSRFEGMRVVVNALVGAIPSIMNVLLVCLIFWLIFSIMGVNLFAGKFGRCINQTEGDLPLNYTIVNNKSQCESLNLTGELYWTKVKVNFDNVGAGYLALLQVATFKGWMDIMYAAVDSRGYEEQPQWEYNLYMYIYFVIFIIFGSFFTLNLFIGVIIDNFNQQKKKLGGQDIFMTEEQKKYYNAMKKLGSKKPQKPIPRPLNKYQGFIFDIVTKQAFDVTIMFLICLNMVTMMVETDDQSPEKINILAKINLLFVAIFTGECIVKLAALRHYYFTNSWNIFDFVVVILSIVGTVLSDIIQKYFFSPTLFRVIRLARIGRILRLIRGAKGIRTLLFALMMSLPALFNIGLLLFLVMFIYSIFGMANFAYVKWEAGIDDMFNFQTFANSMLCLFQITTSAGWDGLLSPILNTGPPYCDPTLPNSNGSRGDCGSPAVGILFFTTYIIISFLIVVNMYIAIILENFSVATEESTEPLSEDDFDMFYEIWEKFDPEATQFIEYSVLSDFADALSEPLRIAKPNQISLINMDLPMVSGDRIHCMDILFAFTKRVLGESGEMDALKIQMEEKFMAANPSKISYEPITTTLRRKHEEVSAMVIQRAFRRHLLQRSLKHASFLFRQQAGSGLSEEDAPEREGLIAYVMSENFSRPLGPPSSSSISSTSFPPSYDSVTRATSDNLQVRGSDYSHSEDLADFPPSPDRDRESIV

| SMILES | IC50 (hNav1.7) [µM] | IC50 (hNav1.5) [µM] | IC50 (hNav1.3) [µM] |
| --- | --- | --- | --- |
| CC[C@H](C)[C@@H]1NC(=O)[C@@H]2CSSC[C@@H]3NC(=O)[C@H](C(C)C)NC(=O)[C@H](CC(C)C)NC(=O)[C@H](CC(N)=O)NC(=O)[C@@H]4CCCN4C(=O)[C@H](CCCNC(=N)N)NC(=O)[C@H](CSSC[C@H](NC(=O)[C@@H](N)CC(=O)O)C(=O)N[C@@H](CC(C)C)C(=O)NCC(=O)N[C@@H](C)C(=O)N[C@@H](Cc4ccccc4)C(=O)N[C@@H](CCCNC(=N)N)C(=O)N[C@@H](CCCCN)C(=O)N2)NC(=O)[C@H](CSSC[C@@H](C(=O)N[C@@H](CCCCN)C(=O)N[C@@H](Cc2ccc(O)cc2)C(=O)N[C@H](C(=O)N[C@@H](Cc2ccccc2)C(=O)O)C(C)C)NC(=O)[C@H](Cc2c[nH]c4ccccc24)NC(=O)[C@H](Cc2c[nH]cn2)NC(=O)[C@H](Cc2c[nH]cn2)NC(=O)[C@H]([C@@H](C)O)NC(=O)[C@H](CCCNC(=N)N)NC(=O)[C@H](CO)NC3=O)NC(=O)[C@H](CCCCN)NC(=O)[C@H](CC(=O)O)NC(=O)[C@H](CC(N)=O)NC(=O)[C@H](CC(=O)O)NC(=O)[C@@H]2CCCN2C1=O [compound 828] (H-DCLGAFRKCIPDNDKCCRPNLVCSRTHHWCKYVF-OH; disulfide 2-17, 9-23, 16-30) | > 5 | > 5 | > 5 |
| CC[C@H](C)[C@@H]1NC(=O)[C@@H]2CSSC[C@@H]3NC(=O)[C@H](C(C)C)NC(=O)[C@H](CC(C)C)NC(=O)[C@H](CC(N)=O)NC(=O)[C@@H]4CCCN4C(=O)[C@H](CCCNC(=N)N)NC(=O)[C@H](CSSC[C@H](NC(=O)[C@@H](N)CC(=O)O)C(=O)N[C@@H](CC(C)C)C(=O)NCC(=O)N[C@@H](C)C(=O)N[C@@H](Cc4ccccc4)C(=O)N[C@@H](CCCNC(=N)N)C(=O)N[C@@H](CCCCN)C(=O)N2)NC(=O)[C@H](CSSC[C@@H](C(=O)N[C@@H](CCCCN)C(=O)N[C@@H](Cc2ccc(O)cc2)C(=O)N[C@H](C(=O)N[C@@H](Cc2ccccc2)C(=O)O)C(C)C)NC(=O)[C@H](Cc2c[nH]c4ccccc24)NC(=O)[C@H](CCCCN)NC(=O)[C@H](Cc2c[nH]cn2)NC(=O)[C@H]([C@@H](C)O)NC(=O)[C@H](CCCNC(=N)N)NC(=O)[C@H](CO)NC3=O)NC(=O)[C@H](CCCCN)NC(=O)[C@H](CC(=O)O)NC(=O)[C@H](CC(N)=O)NC(=O)[C@H](CC(=O)O)NC(=O)[C@@H]2CCCN2C1=O [compound 829] (H-DCLGAFRKCIPDNDKCCRPNLVCSRTHKWCKYVF-OH; disulfide 2-17, 9-23, 16-30) | > 5 | > 5 | 2.3 |
| CC[C@H](C)[C@@H]1NC(=O)[C@@H]2CSSC[C@@H]3NC(=O)[C@H](C(C)C)NC(=O)[C@H](CC(C)C)NC(=O)[C@H](CC(N)=O)NC(=O)[C@@H]4CCCN4C(=O)[C@H](CCCNC(=N)N)NC(=O)[C@H](CSSC[C@H](NC(=O)[C@@H](N)CC(=O)O)C(=O)N[C@@H](CC(C)C)C(=O)NCC(=O)N[C@@H](C)C(=O)N[C@@H](Cc4ccccc4)C(=O)N[C@@H](CCCNC(=N)N)C(=O)N[C@@H](CCCCN)C(=O)N2)NC(=O)[C@H](CSSC[C@@H](C(=O)N[C@@H](CCCCN)C(=O)N[C@@H](Cc2ccc(O)cc2)C(=O)N[C@H](C(=O)N[C@@H](Cc2ccccc2)C(=O)O)C(C)C)NC(=O)[C@H](Cc2c[nH]c4ccccc24)NC(=O)[C@H](CC(C)C)NC(=O)[C@H](Cc2c[nH]cn2)NC(=O)[C@H]([C@@H](C)O)NC(=O)[C@H](CCCNC(=N)N)NC(=O)[C@H](CO)NC3=O)NC(=O)[C@H](CCCCN)NC(=O)[C@H](CC(=O)O)NC(=O)[C@H](CC(N)=O)NC(=O)[C@H](CC(=O)O)NC(=O)[C@@H]2CCCN2C1=O [compound 830] (H-DCLGAFRKCIPDNDKCCRPNLVCSRTHLWCKYVF-OH; disulfide 2-17, 9-23, 16-30) | > 5 | > 5 | > 5 |
